Measured values from publication PMC2762027, “Potencies of Cocaine Methiodide on Major Cocaine Targets in Mice” (PLoS ONE, 2009).
“Also recorded” adds a separate entry of the source. Like-named read-outs stand apart in the source and are kept apart here.

Key:
[1] = target: T1, dopamine uptake by striatal synaptosomes (Mus musculus, UniProt Q61327); assay: Dopamine reuptake into striatal synaptosomes; type: biochemical
T1 construct: C57B6 mice (aged 6–8 weeks) were decapitated and striatum were dissected from both sides of the brain; from tissue; host or cells: striatal synaptosomes of C57B6 mice
T1 sequence (Q61327 whole entry): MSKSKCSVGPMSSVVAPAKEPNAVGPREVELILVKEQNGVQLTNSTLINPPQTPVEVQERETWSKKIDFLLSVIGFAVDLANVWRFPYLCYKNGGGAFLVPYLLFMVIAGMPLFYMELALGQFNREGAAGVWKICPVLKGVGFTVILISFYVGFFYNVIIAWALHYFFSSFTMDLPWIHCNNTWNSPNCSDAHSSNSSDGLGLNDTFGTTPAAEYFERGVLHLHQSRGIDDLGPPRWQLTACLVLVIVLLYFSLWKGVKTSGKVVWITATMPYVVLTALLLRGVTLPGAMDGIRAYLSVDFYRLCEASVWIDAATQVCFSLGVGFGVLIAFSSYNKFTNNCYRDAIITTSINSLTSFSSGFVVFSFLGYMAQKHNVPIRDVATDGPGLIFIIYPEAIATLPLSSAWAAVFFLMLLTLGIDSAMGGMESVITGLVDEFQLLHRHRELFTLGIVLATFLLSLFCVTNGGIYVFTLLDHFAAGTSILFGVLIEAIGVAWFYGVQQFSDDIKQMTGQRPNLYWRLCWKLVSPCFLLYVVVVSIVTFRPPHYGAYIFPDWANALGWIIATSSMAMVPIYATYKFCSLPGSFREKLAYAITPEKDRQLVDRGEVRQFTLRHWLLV
Description: All animal work was conducted in adherence to OSU IACUC approved protocols and guidelines for animal welfare. C57B6 mice (aged 6–8 weeks) were decapitated and striatum were dissected from both sides of the brain and stored on ice. The tissues were placed in ice-cold Krebs'-Ringer's solution buffer (KRB) (in mM: 125 NaCl, 1.2 KCl, 1.2 MgSO4, 1.2 CaCl2, 22 NaHCO3, 1 NaH2PO4, and 10 glucose, adjusted to pH 7.4) with an additional 0.32 M sucrose. Tissue samples were homogenized by using a glass homogenizing tube and with a Teflon-coated pestle. The samples were centrifuged for 10 min at 1,000xg. Supernatant was collected and the debris pellet was discarded. Supernatant was centrifuged for 15 min at 16,000x g. […] Amounts of [^3H]-labeled dopamine accumulated were quantitated by liquid-scintillation counting. All experiments were performed in triplicates. Synaptosomes with the highest dose of inhibitor were used as background controls and radioactivity associated with these wells were subtracted from the total scintillation counts of all wells.
The IC50 values were determined by nonlinear regression analyses of experimental data using GraphPad Prism 3.0 (San Diego, CA). IC50 values presented are averages ± standard error of means (SEM) calculated from 3 independent uptake experiments or recordings of 4 different DRG neurons. Statistical analyses for the difference between the IC50 values of the two drugs were performed by Student's paired t-test using SPSS 17.0 (Chicago, IL).

[2] = target: mouse SERT (Mus musculus, UniProt Q60857); assay: Serotonin uptake into HeLa cells transiently transfected with mSERT; type: cell-based
mouse SERT, sequence (Q60857 whole entry): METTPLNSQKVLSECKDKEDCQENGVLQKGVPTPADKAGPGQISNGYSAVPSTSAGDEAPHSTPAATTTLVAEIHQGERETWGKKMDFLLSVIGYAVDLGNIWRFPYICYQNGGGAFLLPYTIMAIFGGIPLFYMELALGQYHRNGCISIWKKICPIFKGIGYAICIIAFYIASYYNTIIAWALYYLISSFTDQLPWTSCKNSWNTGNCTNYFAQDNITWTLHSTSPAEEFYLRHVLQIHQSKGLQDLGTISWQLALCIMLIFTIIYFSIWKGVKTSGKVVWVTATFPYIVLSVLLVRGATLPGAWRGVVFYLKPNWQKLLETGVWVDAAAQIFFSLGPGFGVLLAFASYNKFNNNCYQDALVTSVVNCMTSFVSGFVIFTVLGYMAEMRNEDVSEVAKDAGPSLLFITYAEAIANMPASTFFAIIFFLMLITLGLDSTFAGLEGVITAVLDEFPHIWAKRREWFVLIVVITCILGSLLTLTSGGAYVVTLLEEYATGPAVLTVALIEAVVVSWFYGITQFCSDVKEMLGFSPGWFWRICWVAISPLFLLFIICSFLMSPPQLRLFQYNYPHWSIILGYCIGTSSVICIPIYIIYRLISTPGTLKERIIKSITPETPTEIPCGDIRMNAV

[3] = target: mouse DAT (Mus musculus, UniProt Q61327); assay: Dopamine uptake into HeLa cells transiently transfected with mDAT; type: cell-based
mouse DAT, sequence (Q61327 whole entry): as the sequence (Q61327 whole entry) above

[4] = test system: DRG neuron Na+ channels; assay: Whole-cell voltage clamp recording of sodium channel currents in dorsal root ganglion neurons; type: cell-based, mouse; conditions: for IC50: isolated mouse DRG neurons, whole-cell patch clamp, held at -70 mV, read-out: IC50, inhibition of DRG neuron Na+ channels
Description: Dorsal root ganglion (DRG) neurons (T1–T10) from adult male C57B6 mice (aged 6–8 weeks) were isolated as per Malin et al. Briefly, ganglia were dissected under stereo microscope and washed in Ca^2+/Mg^2+-free Hank's Buffered Salt Solution (HBSS). DRGs were digested enzymatically, first with papain and then collagenase II and dispase II, each for 10 min at 37°C. Digested DRGs were then triturated in culture media (F-12 supplemented with 10% FBS and 5 mg/ml penicillin/streptomycin) by a fire-polished Pasteur pipette until solution becomes cloudy. Isolated DRG neurons were plated on poly-ornithine coated glass cover slips and maintained in a 37°C, 5% CO2 incubator. Individual DRG neurons were recorded after overnight culture.
Plated coverslips were centered in a perfusion chamber filled with extracellular solution (ECS) containing (in mM): 140 NaCl, 5 KCl, 2 CaCl2, 1 MgCl2, 10 glucose, 10 HEPES, pH 7.4. Cocaine and CM were dissolved in ECS and delivered via a pressure-driven perfusion system (SmartSquirt 8, AutoMate Scientific) with the tip positioned so the DRG neuron being recorded was fully within the direct stream of perfusate. Recording pipettes were pulled from micropipette glass (World Precision Instruments, Sarasota FL) to 2–4 MΩ when filled with an intracellular solution containing (in mM): 140 […], 1 CaCl2, 2 MgCl2, 11 EGTA, 10 HEPES, 2 Mg2ATP, pH 7.2). Whole-cell recordings were made using an EPC10 amplifier and the PatchMaster 2.2.0 software (both from HEKA Electronik, Germany). As soon as the whole-cell configuration was established, fast and slow capacitances were cancelled and the holding potential (Vh) was set to -70 mV. A step protocol ([…] from −70 mV to 10 mV with 5 mV increment for each step) was applied to determine the testing voltage (Vt) that generated the maximal inward current in the following experiment. […] Only one cell per cover slip was recorded to avoid possible drug contamination of other cells. […]
A range of drug concentrations, starting from low to high, were tested for each DRG neuron. The sodium channel currents were recorded 30 s before the drug application, during the 30 s drug application, and 30–60 s after drug washout by perfusion with ECS. For each set of tests, current amplitude was measured by subtracting the baseline value from the peak current. […] The currents measured after the drug washout were used to confirm the complete recovery before testing the next drug concentration.
The IC50 values were determined by nonlinear regression analyses of experimental data using GraphPad Prism 3.0 (San Diego, CA). IC50 values presented are averages ± standard error of means (SEM) calculated from 3 independent uptake experiments or recordings of 4 different DRG neurons. […]

[5] = target: mouse NET (Mus musculus, UniProt O55192); assay: Norepinephrine uptake into HeLa cells transiently transfected with mNET; type: cell-based
mouse NET, sequence (O55192 whole entry): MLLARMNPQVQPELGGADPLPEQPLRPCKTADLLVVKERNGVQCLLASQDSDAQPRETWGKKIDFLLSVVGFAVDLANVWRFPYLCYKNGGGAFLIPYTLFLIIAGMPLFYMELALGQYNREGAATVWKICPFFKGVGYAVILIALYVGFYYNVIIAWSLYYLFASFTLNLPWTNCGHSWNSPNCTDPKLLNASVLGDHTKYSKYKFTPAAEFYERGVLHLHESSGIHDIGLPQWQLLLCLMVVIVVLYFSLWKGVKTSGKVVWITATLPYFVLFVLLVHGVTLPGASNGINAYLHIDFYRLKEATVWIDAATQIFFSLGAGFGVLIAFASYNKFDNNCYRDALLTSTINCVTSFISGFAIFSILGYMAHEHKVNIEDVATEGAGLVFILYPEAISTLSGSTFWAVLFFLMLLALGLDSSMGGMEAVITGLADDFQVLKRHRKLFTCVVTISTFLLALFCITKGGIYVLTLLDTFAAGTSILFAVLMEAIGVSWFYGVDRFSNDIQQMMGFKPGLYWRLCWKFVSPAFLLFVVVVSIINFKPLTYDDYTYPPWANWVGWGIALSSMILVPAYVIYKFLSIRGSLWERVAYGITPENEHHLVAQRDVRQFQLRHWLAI

[6] = test system: sodium channels; set-up: method as in PMID 16406254; conditions: cited from earlier work

SMILES | ratio of IC50 values, cocaine methiodide / cocaine, striatal synaptosomes ([1]; dopamine uptake, mouse striatal synaptosomes) | IC50 ([1]; mouse striatum synaptosomes, 60 nM [3H]dopamine, 100 µM desipramine, mean ± SEM, 3 experiments, listed as CM, read-out: IC50, inhibition of dopamine uptake by striatal synaptosomes) | IC50 ([1]; mouse striatum synaptosomes, 60 nM [3H]dopamine, 100 µM desipramine, mean ± SEM, 3 experiments, read-out: IC50, inhibition of dopamine uptake by striatal synaptosomes) | ratio of IC50 values, cocaine methiodide / cocaine, mSERT ([2]; transfected HeLa cells) | IC50 ([2]; transfected HeLa cells, 60 nM [3H] substrate, mean ± SEM, 3 experiments, read-out: IC50, inhibition of serotonin uptake by mSERT) | ratio of IC50 values, cocaine methiodide / cocaine, mDAT ([3]; transfected HeLa cells) | IC50 ([3]; transfected HeLa cells, 60 nM [3H] substrate, mean ± SEM, 3 experiments, read-out: IC50, inhibition of dopamine uptake by mDAT) | effect on sodium channel currents (peak inward current) in DRG neurons ([4]; concentrations up to 3 mM, the highest tested, n = 4 cells, p>0.05, listed as CM) | ratio of IC50 values, cocaine methiodide / cocaine, mNET ([5]; transfected HeLa cells) | IC50 ([5]; transfected HeLa cells, 60 nM [3H] substrate, mean ± SEM, 3 experiments, read-out: IC50, inhibition of norepinephrine uptake by mNET) | potency for blocking sodium channels [6] | IC50 [1] | IC50 [2] | IC50 [3] | sodium channel IC50 relative to those for the monoamine transporters ([4]; cocaine, DRG Na+ channels vs DAT, NET, SERT) | IC50 ([4]; n = 4 cells, listed as cocaine) | IC50 ([4]; n = 4 cells) | IC50 [5]
COC(=O)[C@H]1[C@@H](OC(=O)c2ccccc2)C[C@@H]2CC[C@H]1[N+]2(C)C.[I-] [Cocaine Methiodide, Cocaine methiodide] | 33 fold | 11.7 ± 5.1 µM | 11.5 ± 5.1 µM | 123 fold | 84.3 ± 4.8 µM | 184 fold | 83.2 ± 2.1 µM | very little inhibition; also recorded: no observable effect; also recorded: little observable effect; also recorded: does not inhibit | 31 fold | 20.9 ± 3.1 µM | – | – | – | – | – | – | – | –
COC(=O)[C@H]1[C@@H](OC(=O)c2ccccc2)C[C@@H]2CC[C@H]1N2C [Cocaine] | – | – | – | – | – | – | – | – | – | – | ≥ 50 µM | 0.35 ± 0.11 µM | 0.68 ± 0.39 µM | 0.45 ± 0.11 µM | roughly 100 fold | 85 µM | 84.8 ± 5.9 µM | 0.67 ± 0.09 µM
